From article PMC4213378, “Pharmacokinetics and Efficacy of the Spleen Tyrosine Kinase Inhibitor R406 after Ocular Delivery for Retinoblastoma” (Pharmaceutical Research, 2014)

Columns and labels:
[1] = Storage stability of R406 in murine plasma samples; type: physicochemical, mouse
Protocol: (§1) Stability: The extracted solution stability of R406 from murine plasma or vitreous was assessed at low (41.2nM), medium (370.4 nM), and high (3333.3 nM) concentrations in triplicate at room temperature. Blank murine plasma was spiked with the indicated concentrations of R406 and extracted solutions were stored at room temperature for day 0, and day 2. The short-term stability of R406 in murine plasma or vitreous at -20 °C was assessed at three concentrations in triplicate. Samples were thawed at day 1 and 2. At day 2, protein precipitation was performed and samples treated with internal standard/acetonitrile as described previously: for murine plasma samples, 50 µL of sample was quenched by addition of 100 µL of 5 mg/L OSI-906 (internal standard) in 100% acetonitrile, followed by plate sealing, shaking and centrifuging, transfer of 100 µL of supernatant injection of 10 µL of supernatant onto the LC–MS/MS system; for murine vitreous samples, 5 µL of sample quenched by addition of 45 µL of 5 mg/L OSI-906 (internal standard) in 100% acetonitrile, followed by plate sealing, shaking and centrifuging, transfer of 40 µL of supernatant injection of 10 µL of supernatant onto the LC–MS/MS system. Long term stability of R406 in murine plasma or vitreous at −80 °C was assessed. Unextracted spiked murine plasma or vitreous at low, medium, and high levels was frozen at −80 °C for 0, 7, and 14 days. Samples were thawed immediately extracted with acetonitrile/OSI-906, and quantitated. All samples were analyzed in triplicates.

[2] = tested on: RB355 retinoblastoma cells; test: RB355 cell viability (Cell Titer Glo) after varied exposure durations; type: cell-based
Protocol: RB355 retinoblastoma cells were maintained in RPMI medium (Lonza RPMI-1640) supplemented with 10% FBS (Equitech-Bio), penicillin, streptomycin, and glutamate (Gibco). BJ cells were grown in EMEM (Lonza) supplemented with 10% FBS, penicillin and streptomycin. 293T cells were grown in DMEM supplemented with 10% FBS, penicillin, streptomycin, and glutamate. Cells were passaged every 3-4 days or when they reached 70%-80% confluence.
RB335 cells were seeded in 6-well dishes. Seeded cells were incubated overnight at 37 °C in a humidified 5% CO2 incubator. Cells were treated with DMSO alone, 1, 2.5, or 5 µM R406 and returned to the incubator. At 0, 6, 12, 18, 24, and 72 h, the drugged media was removed from a subset of samples (n=3 samples per cell line) and replaced with drug-free media, washing out the R406 for the remainder of the 72 h incubation. After 72 hours, cells were suspended and aliquoted into a 96 well plate assaying viability (50 µL of cells per well, each sample assayed in duplicate and averaged). Plates were equilibrated at room temperature for 20 min before addition of 50 μL Cell Titer Glo (Promega) to each well. Plates were shaken on an orbital shaker for 2 min at 500 rpm. Luminescence was read after 15 min on an Envision plate reader (Perkin Elmer). Dissociated cells were also stained for caspase and EdU. […]

[3] = Storage stability of R406 in murine vitreous samples; type: physicochemical, mouse
Protocol: as §1, with “Samples were thawed at day 1 and 2. At day 2, protein precipitation was performed and samples treated with” left out

For COc1cc(Nc2ncc(F)c(Nc3ccc4c(n3)NC(=O)C(C)(C)O4)n2)cc(OC)c1OC [R406], which “time extracted samples were stable” value ([1]; extracted from murine plasma, room temperature) is on record?
Its value is “at least 48 hours”.

What about the Accuracy% ([1]; extracted plasma samples in autosampler for 2 days, injected at Day 3, High Control 3333.3 nM) of the same compound?
Its Accuracy% is 94.4%.

And the Accuracy% ([1]; extracted plasma samples in autosampler for 2 days, injected at Day 3, Low Control 41.2 nM)?
Its Accuracy% is 97.4%.

And the Accuracy% ([1]; extracted plasma samples in autosampler for 2 days, injected at Day 3, Middle Control 370.4 nM)?
The Accuracy% was 97.6%.

And the Accuracy% ([1]; murine plasma at -20°C, thawed on Day 2, injected at Day 3, High Control 3333.3 nM)?
Its Accuracy% is 95.6%.

And the Accuracy% ([1]; murine plasma at -20°C, thawed on Day 2, injected at Day 3, Low Control 41.2 nM)?
Its Accuracy% is 109.2%.

And the Accuracy% ([1]; murine plasma at -20°C, thawed on Day 2, injected at Day 3, Middle Control 370.4 nM)?
Its Accuracy% is 98.4%.

And the Accuracy% ([1]; murine plasma at -20°C, thawed on Day 3, injected at Day 3, Middle Control 370.4 nM)?
The Accuracy% was 101.5%.

And the Accuracy% ([1]; murine plasma at -80°C, injected at Day 8, High Control 3333.3 nM)?
The Accuracy% was 84.3%.

And the Accuracy% ([1]; murine plasma at -80°C, injected at Day 8, Low Control 41.2 nM)?
The Accuracy% was 87.8%.

And the Accuracy% ([1]; murine plasma at -80°C, injected at Day 8, Middle Control 370.4 nM)?
Its Accuracy% is 93.1%.

What about the Accuracy% ([1]; murine plasma at -80°C, injected at Day 15, High Control 3333.3 nM) of the same compound?
The Accuracy% was 89.5%.

And the Accuracy% ([1]; murine plasma at -80°C, injected at Day 15, Low Control 41.2 nM)?
Its Accuracy% is 84.8%.

What about the Accuracy% ([1]; murine plasma at -80°C, injected at Day 15, Middle Control 370.4 nM) of the same compound?
Its Accuracy% is 84.7%.

What about the “time spiked samples were stable” value ([1]; murine plasma stored at -20°C) of the same compound?
The value was “at least 72 hours”.

What about the “time spiked samples were stable” value ([1]; murine plasma stored at -80°C) of the same compound?
The value was ≥ 14 days.

What about the cytotoxicity ([2]; 1 μM R406, 48 – 72 h exposure, read-out: drop in viability compared to DMSO treated controls) of the same compound?
Its cytotoxicity is ~20%.

What about the “reduction in viability compared to DMSO treated controls” value ([2]; 1 μM R406, up to 24 h exposure) of the same compound?
The value was “no reduction in cell viability”.

And the “time extracted samples were stable” value ([3]; extracted from murine vitreous, room temperature)?
Its value is “at least 48 hours”.

What about the Accuracy% ([3]; extracted vitreous samples in autosampler for 2 days, injected at Day 3, High Control 3333.3 nM) of the same compound?
The Accuracy% was 91.6%.

What about the Accuracy% ([3]; extracted vitreous samples in autosampler for 2 days, injected at Day 3, Low Control 41.2 nM) of the same compound?
The Accuracy% was 96.0%.

What about the Accuracy% ([3]; extracted vitreous samples in autosampler for 2 days, injected at Day 3, Middle Control 370.4 nM) of the same compound?
Its Accuracy% is 88.8%.

What about the Accuracy% ([3]; murine vitreous at -20°C, thawed on Day 2, injected at Day 3, High Control 3333.3 nM) of the same compound?
The Accuracy% was 91.1%.

What about the Accuracy% ([3]; murine vitreous at -20°C, thawed on Day 2, injected at Day 3, Low Control 41.2 nM) of the same compound?
Its Accuracy% is 109.4%.

And the Accuracy% ([3]; murine vitreous at -20°C, thawed on Day 2, injected at Day 3, Middle Control 370.4 nM)?
The Accuracy% was 93.2%.

And the Accuracy% ([3]; murine vitreous at -20°C, thawed on Day 3, injected at Day 3, High Control 3333.3 nM)?
Its Accuracy% is 90.3%.

And the Accuracy% ([3]; murine vitreous at -20°C, thawed on Day 3, injected at Day 3, Low Control 41.2 nM)?
Its Accuracy% is 96.6%.

What about the Accuracy% ([3]; murine vitreous at -20°C, thawed on Day 3, injected at Day 3, Middle Control 370.4 nM) of the same compound?
Its Accuracy% is 94.4%.

What about the Accuracy% ([3]; murine vitreous at -80°C, injected at Day 8, High Control 3333.3 nM) of the same compound?
The Accuracy% was 96.4%.

And the Accuracy% ([3]; murine vitreous at -80°C, injected at Day 8, Low Control 41.2 nM)?
The Accuracy% was 78.7%.

And the Accuracy% ([3]; murine vitreous at -80°C, injected at Day 8, Middle Control 370.4 nM)?
The Accuracy% was 87.5%.

And the Accuracy% ([3]; murine vitreous at -80°C, injected at Day 15, High Control 3333.3 nM)?
The Accuracy% was 105.2%.

What about the Accuracy% ([3]; murine vitreous at -80°C, injected at Day 15, Low Control 41.2 nM) of the same compound?
The Accuracy% was 105.5%.

And the Accuracy% ([3]; murine vitreous at -80°C, injected at Day 15, Middle Control 370.4 nM)?
The Accuracy% was 99.4%.

And the “time spiked samples were stable” value ([3]; murine vitreous stored at -20°C)?
The value was “at least 72 hours”.

And the “time spiked samples were stable” value ([3]; murine vitreous stored at -80°C)?
Its value is ≥ 14 days.
